Publication PMC6084503, “Pyrrolo[3,2-c]pyridine derivatives with potential inhibitory effect against FMS kinase: in vitro biological studies” (Journal of Enzyme Inhibition and Medicinal Chemistry, 2018)
pIC50: −log10 of the molar value.

Columns and labels:
ABL1 = target: T1, ABL1 (Homo sapiens, UniProt P00519); test: Kinase HotSpot 40-kinase panel; format: biochemical; conditions: single-dose concentration of 1 μM
T1 construct: purchased Reaction Biology Corp. (Kinase HotSpot)
Experimental: (§1) Reaction Biology Corp. Kinase HotSpot^SM service [http://www.reactionbiology.com] was utilised for screening of the target compounds as per the protocol reported in the literature.
(§2) Compound 1r was tested against a panel of 40 kinases including FMS. […] Its inhibition percentages against FLT3 (D835Y) and c-MET kinases were 42% and 40%, respectively. So its IC50 values against both of them will be in micromolar scale. […] The inhibition percentages exerted by compound 1r against the other 37 tested kinases were less than 28%.

ALK = target: T2, ALK (Homo sapiens, UniProt Q9UM73); test: Kinase HotSpot 40-kinase panel; format: biochemical; conditions: single-dose concentration of 1 μM
T2 construct: purchased Reaction Biology Corp. (Kinase HotSpot)
Experimental: as §1, §2

BTK = target: T3, BTK (Homo sapiens, UniProt Q06187); test: Kinase HotSpot 40-kinase panel; format: biochemical; conditions: single-dose concentration of 1 μM
T3 construct: purchased Reaction Biology Corp. (Kinase HotSpot)
Experimental: as §1, §2

CHK1 = target: T4, CHK1 (Homo sapiens, UniProt O14757); test: Kinase HotSpot 40-kinase panel; format: biochemical; conditions: single-dose concentration of 1 μM
T4 construct: purchased Reaction Biology Corp. (Kinase HotSpot)
Experimental: as §1, §2

CaMKI = target: T5, CaMKI (Homo sapiens, UniProt Q14012); test: Kinase HotSpot 40-kinase panel; format: biochemical; conditions: single-dose concentration of 1 μM
T5 construct: purchased Reaction Biology Corp. (Kinase HotSpot)
Experimental: as §1, §2

DMPK = target: T6, DMPK (Homo sapiens, UniProt Q09013); test: Kinase HotSpot 40-kinase panel; format: biochemical; conditions: single-dose concentration of 1 μM
T6 construct: purchased Reaction Biology Corp. (Kinase HotSpot)
Experimental: as §1, §2

EGFR (T790M) = target: T7, EGFR (T790M) (Homo sapiens, UniProt P00533, T790M); test: Kinase HotSpot 40-kinase panel; format: biochemical; conditions: single-dose concentration of 1 μM
T7 construct: purchased Reaction Biology Corp. (Kinase HotSpot)
Experimental: as §1, §2

EPHA1 = target: T8, EPHA1 (Homo sapiens, UniProt P21709); test: Kinase HotSpot 40-kinase panel; format: biochemical; conditions: single-dose concentration of 1 μM
T8 construct: purchased Reaction Biology Corp. (Kinase HotSpot)
Experimental: as §1, §2

FYN = target: T9, FYN (Homo sapiens, UniProt P06241); test: Kinase HotSpot 40-kinase panel; format: biochemical; conditions: single-dose concentration of 1 μM
T9 construct: purchased Reaction Biology Corp. (Kinase HotSpot)
Experimental: as §1, §2

GSK3β = target: T10, GSK3β (Homo sapiens, UniProt P49841); test: Kinase HotSpot 40-kinase panel; format: biochemical; conditions: single-dose concentration of 1 μM
T10 construct: purchased Reaction Biology Corp. (Kinase HotSpot)
Experimental: as §1, §2

LCK = target: T11, LCK (Homo sapiens, UniProt P06239); test: Kinase HotSpot 40-kinase panel; format: biochemical; conditions: single-dose concentration of 1 μM
T11 construct: purchased Reaction Biology Corp. (Kinase HotSpot)
Experimental: as §1, §2

MEK1 = target: T12, MEK1 (Homo sapiens, UniProt Q02750); test: Kinase HotSpot 40-kinase panel; format: biochemical; conditions: single-dose concentration of 1 μM
T12 construct: purchased Reaction Biology Corp. (Kinase HotSpot)
Experimental: as §1, §2

MLK1 = target: T13, MLK1 (Homo sapiens, UniProt P80192); test: Kinase HotSpot 40-kinase panel; format: biochemical; conditions: single-dose concentration of 1 μM
T13 construct: purchased Reaction Biology Corp. (Kinase HotSpot)
Experimental: as §1, §2

P70S6K = target: T14, P70S6K (Homo sapiens, UniProt P23443); test: Kinase HotSpot 40-kinase panel; format: biochemical; conditions: single-dose concentration of 1 μM
T14 construct: purchased Reaction Biology Corp. (Kinase HotSpot)
Experimental: as §1, §2

PDK1 = target: T15, PDK1 (Homo sapiens, UniProt O15530); test: Kinase HotSpot 40-kinase panel; format: biochemical; conditions: single-dose concentration of 1 μM
T15 construct: purchased Reaction Biology Corp. (Kinase HotSpot)
Experimental: as §1, §2

PIM1 = target: T16, PIM1 (Homo sapiens, UniProt P11309); test: Kinase HotSpot 40-kinase panel; format: biochemical; conditions: single-dose concentration of 1 μM
T16 construct: purchased Reaction Biology Corp. (Kinase HotSpot)
Experimental: as §1, §2

PLK1 = target: T17, PLK1 (Homo sapiens, UniProt P53350); test: Kinase HotSpot 40-kinase panel; format: biochemical; conditions: single-dose concentration of 1 μM
T17 construct: purchased Reaction Biology Corp. (Kinase HotSpot)
Experimental: as §1, §2

ROCK1 = target: T18, ROCK1 (Homo sapiens, UniProt Q13464); test: Kinase HotSpot 40-kinase panel; format: biochemical; conditions: single-dose concentration of 1 μM
T18 construct: purchased Reaction Biology Corp. (Kinase HotSpot)
Experimental: as §1, §2

ROS/ROS1 = target: T19, ROS/ROS1 (Homo sapiens, UniProt P08922); test: Kinase HotSpot 40-kinase panel; format: biochemical; conditions: single-dose concentration of 1 μM
T19 construct: purchased Reaction Biology Corp. (Kinase HotSpot)
Experimental: as §1, §2

RSK1 = target: T20, RSK1 (Homo sapiens, UniProt Q15418); test: Kinase HotSpot 40-kinase panel; format: biochemical; conditions: single-dose concentration of 1 μM
T20 construct: purchased Reaction Biology Corp. (Kinase HotSpot)
Experimental: as §1, §2

SAPK2a = target: T21, SAPK2a (Homo sapiens, UniProt Q16539); test: Kinase HotSpot 40-kinase panel; format: biochemical; conditions: single-dose concentration of 1 μM
T21 construct: purchased Reaction Biology Corp. (Kinase HotSpot)
Experimental: as §1, §2

SYK = target: T22, SYK (Homo sapiens, UniProt P43405); test: Kinase HotSpot 40-kinase panel; format: biochemical; conditions: single-dose concentration of 1 μM
T22 construct: purchased Reaction Biology Corp. (Kinase HotSpot)
Experimental: as §1, §2

TEC (activated) = target: T23, TEC (activated) (Homo sapiens, UniProt P42680); test: Kinase HotSpot 40-kinase panel; format: biochemical; conditions: single-dose concentration of 1 μM
T23 construct: purchased Reaction Biology Corp. (Kinase HotSpot)
Experimental: as §1, §2

c-MET = target: T24, c-MET (Homo sapiens, UniProt P08581); test: Kinase HotSpot 40-kinase panel; format: biochemical; conditions: single-dose concentration of 1 μM
T24 construct: purchased Reaction Biology Corp. (Kinase HotSpot)
Experimental: as §1, §2

[1] = test system: DU-145 prostate cancer cell line; test: NCI antiproliferative screening, 5-dose; format: cell-based
Experimental: (§3) Compounds 1r and KIST101029 were tested at the National Cancer Institute (NCI, Bethesda, MD) following their standard protocol [https://dtp.cancer.gov/discovery_development/nci-60/methodology.htm].
(§4) Due to over-expression of FMS kinase in certain types of tumours such as ovarian, prostate, and breast[5–7] cancers, we decided to test the antiproliferative activity of compound 1r against a panel of six ovarian, two prostate, and five breast cancer cell lines. It was also tested against HS 27 fibroblasts in order to investigate the selectivity indexes. The results were compared with those of KIST101029 as a reference standard.

[2] = test system: HS 578T breast cancer cell line; test: NCI antiproliferative screening, 5-dose; format: cell-based
Experimental: as §3, §4

[3] = test system: IGROV1 ovarian cancer cell line; test: NCI antiproliferative screening, 5-dose; format: cell-based
Experimental: as §3, §4

[4] = test system: MCF7 breast cancer cell line; test: NCI antiproliferative screening, 5-dose; format: cell-based
Experimental: as §3, §4

[5] = test system: MDA-MB-231/ATCC breast cancer cell line; test: NCI antiproliferative screening, 5-dose; format: cell-based
Experimental: as §3, §4

[6] = test system: MDA-MB-468 breast cancer cell line; test: NCI antiproliferative screening, 5-dose; format: cell-based
Experimental: as §3, §4

[7] = test system: NCI/ADR-RES ovarian cancer cell line; test: NCI antiproliferative screening, 5-dose; format: cell-based
Experimental: as §3, §4

[8] = test system: OVCAR-3 ovarian cancer cell line; test: NCI antiproliferative screening, 5-dose; format: cell-based
Experimental: as §3, §4

[9] = test system: OVCAR-4 ovarian cancer cell line; test: NCI antiproliferative screening, 5-dose; format: cell-based
Experimental: as §3, §4

[10] = test system: OVCAR-5 ovarian cancer cell line; test: NCI antiproliferative screening, 5-dose; format: cell-based
Experimental: as §3, §4

[11] = test system: OVCAR-8 ovarian cancer cell line; test: NCI antiproliferative screening, 5-dose; format: cell-based
Experimental: as §3, §4

[12] = test system: PC-3 prostate cancer cell line; test: NCI antiproliferative screening, 5-dose; format: cell-based
Experimental: as §3, §4

[13] = test system: T-47D breast cancer cell line; test: NCI antiproliferative screening, 5-dose; format: cell-based
Experimental: as §3, §4

[14] = Homo sapiens, concentration producing 50% inhibition, mean of duplicate experiments
[15] = concentration producing 100% inhibition

T19 sequence (P08922 28-2347): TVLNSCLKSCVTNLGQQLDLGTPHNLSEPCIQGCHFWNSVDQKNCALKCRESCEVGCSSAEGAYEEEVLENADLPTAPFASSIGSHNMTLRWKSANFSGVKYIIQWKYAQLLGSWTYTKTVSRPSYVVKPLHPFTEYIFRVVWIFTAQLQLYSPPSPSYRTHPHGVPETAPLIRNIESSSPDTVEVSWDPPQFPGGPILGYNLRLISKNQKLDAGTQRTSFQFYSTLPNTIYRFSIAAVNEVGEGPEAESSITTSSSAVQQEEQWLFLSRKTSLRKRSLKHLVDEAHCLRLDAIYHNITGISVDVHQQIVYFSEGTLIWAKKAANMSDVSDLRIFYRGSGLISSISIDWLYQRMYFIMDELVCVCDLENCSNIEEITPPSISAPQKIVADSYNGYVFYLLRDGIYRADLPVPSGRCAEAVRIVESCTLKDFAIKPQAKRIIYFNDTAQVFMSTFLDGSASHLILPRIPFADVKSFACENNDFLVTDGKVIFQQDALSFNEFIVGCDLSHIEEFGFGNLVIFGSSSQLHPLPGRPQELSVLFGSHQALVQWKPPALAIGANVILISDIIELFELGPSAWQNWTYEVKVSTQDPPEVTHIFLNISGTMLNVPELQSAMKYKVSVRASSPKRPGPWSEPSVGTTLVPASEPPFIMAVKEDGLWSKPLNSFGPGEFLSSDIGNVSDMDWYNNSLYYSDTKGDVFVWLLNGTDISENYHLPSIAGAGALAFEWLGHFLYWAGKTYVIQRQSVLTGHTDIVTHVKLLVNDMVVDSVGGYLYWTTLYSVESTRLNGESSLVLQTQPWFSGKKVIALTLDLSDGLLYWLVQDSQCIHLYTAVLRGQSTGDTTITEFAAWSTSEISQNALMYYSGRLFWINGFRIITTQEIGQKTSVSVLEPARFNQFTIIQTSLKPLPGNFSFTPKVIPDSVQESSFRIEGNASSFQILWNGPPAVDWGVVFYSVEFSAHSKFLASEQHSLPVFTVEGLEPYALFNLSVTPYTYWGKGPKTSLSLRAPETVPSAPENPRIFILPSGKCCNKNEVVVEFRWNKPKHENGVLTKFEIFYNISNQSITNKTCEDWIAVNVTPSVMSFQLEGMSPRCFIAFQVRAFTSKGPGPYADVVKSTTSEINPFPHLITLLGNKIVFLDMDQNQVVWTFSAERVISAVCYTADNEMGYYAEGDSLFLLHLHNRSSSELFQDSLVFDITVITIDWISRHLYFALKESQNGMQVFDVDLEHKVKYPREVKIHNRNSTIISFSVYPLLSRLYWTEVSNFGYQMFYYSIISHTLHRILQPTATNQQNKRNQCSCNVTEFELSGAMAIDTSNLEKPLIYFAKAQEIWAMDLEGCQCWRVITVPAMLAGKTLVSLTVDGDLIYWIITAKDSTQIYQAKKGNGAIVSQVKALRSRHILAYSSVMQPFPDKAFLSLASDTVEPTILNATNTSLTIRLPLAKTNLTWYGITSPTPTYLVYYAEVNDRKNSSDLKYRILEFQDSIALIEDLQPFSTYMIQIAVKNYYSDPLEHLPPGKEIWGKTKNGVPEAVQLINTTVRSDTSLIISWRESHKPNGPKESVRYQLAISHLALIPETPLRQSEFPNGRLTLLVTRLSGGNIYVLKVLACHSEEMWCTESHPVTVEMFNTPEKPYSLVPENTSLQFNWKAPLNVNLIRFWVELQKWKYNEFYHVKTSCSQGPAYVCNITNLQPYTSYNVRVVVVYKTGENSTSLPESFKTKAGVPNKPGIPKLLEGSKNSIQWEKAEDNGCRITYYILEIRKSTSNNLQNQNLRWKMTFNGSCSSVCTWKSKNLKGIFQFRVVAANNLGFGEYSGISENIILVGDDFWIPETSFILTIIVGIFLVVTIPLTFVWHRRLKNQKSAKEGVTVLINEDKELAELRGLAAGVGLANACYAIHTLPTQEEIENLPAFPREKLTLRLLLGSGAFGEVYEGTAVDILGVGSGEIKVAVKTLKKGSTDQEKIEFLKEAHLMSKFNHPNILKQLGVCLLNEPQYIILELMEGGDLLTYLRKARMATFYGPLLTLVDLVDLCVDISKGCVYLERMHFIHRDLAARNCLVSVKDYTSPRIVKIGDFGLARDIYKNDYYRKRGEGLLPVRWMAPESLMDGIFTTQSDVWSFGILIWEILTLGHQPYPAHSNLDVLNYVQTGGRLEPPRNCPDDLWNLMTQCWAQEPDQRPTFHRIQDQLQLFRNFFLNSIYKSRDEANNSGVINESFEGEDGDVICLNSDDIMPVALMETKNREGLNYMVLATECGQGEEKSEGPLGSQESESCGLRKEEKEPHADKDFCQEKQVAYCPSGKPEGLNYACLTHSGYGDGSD
T11 sequence (P06239 whole entry): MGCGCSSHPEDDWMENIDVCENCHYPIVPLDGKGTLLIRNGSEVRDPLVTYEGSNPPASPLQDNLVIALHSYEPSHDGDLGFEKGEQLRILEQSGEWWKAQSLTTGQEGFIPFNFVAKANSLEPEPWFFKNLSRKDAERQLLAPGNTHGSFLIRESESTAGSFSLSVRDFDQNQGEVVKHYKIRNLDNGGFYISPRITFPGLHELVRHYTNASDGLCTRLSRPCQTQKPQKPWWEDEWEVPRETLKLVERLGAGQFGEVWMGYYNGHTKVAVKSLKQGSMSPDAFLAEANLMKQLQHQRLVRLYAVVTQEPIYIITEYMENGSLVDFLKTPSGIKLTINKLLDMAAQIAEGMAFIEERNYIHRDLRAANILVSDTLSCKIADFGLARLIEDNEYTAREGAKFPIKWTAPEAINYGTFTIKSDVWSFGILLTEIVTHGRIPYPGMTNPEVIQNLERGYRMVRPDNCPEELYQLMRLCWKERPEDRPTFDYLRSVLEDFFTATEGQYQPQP
T20 sequence (Q15418 whole entry): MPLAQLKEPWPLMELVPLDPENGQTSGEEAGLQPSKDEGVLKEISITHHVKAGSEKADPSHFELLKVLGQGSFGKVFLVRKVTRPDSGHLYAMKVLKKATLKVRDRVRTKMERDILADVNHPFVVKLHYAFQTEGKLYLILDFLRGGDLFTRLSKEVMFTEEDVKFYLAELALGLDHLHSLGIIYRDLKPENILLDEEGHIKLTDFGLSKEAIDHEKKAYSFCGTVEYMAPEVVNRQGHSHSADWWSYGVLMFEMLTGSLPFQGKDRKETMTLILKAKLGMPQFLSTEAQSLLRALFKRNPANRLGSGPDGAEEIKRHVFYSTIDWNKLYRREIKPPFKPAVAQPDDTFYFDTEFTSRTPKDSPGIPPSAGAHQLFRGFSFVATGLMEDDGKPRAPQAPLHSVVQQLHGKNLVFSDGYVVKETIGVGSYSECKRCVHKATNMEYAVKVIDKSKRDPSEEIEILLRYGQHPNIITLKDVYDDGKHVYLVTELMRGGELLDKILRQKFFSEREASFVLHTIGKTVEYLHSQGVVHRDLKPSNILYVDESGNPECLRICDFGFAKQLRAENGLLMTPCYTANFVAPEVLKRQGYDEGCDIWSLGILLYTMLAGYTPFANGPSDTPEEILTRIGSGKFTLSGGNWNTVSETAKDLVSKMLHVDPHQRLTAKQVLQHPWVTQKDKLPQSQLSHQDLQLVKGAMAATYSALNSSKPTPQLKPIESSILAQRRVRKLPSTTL
T5 sequence (Q14012 whole entry): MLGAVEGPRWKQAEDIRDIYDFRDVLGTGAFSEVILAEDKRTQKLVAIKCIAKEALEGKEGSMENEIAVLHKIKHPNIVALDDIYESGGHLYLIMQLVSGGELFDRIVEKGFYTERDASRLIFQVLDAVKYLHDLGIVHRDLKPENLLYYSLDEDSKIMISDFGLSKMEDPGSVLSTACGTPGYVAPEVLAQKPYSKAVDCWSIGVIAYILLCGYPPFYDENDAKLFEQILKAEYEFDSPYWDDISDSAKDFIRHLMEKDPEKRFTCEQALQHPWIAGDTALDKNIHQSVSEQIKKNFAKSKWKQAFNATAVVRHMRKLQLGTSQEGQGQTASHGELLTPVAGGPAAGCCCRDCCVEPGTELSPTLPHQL
T14 sequence (P23443 whole entry): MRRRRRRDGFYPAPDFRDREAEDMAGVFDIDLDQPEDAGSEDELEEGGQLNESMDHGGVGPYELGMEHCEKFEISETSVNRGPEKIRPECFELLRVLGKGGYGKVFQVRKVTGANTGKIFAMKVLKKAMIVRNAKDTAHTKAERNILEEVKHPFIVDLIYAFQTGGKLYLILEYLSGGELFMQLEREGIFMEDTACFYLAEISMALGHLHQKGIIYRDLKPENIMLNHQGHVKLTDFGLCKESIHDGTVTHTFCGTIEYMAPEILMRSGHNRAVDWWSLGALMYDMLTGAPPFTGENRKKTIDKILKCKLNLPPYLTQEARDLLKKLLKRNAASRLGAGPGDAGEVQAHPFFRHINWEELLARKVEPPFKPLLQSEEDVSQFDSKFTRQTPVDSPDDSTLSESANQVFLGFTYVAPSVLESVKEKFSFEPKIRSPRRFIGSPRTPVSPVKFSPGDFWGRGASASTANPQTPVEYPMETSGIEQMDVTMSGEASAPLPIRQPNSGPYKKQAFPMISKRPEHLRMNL
T10 sequence (P49841 whole entry): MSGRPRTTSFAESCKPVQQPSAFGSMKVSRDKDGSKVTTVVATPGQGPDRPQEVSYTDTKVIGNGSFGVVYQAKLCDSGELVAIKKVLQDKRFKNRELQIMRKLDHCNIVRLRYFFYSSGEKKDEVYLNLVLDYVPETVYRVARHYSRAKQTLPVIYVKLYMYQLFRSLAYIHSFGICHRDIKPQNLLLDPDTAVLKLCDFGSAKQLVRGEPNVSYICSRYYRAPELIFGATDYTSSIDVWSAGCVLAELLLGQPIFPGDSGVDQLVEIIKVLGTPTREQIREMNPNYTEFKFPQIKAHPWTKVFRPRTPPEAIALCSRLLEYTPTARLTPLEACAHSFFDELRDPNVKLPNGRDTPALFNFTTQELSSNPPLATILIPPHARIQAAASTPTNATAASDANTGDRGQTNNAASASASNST

O=C(Nc1cccc(-n2ccc3c(NC(=O)c4ccccc4)nccc32)c1)c1ccc(N2CCOCC2)c(C(F)(F)F)c1 [KIST101029, reference compound]
inhibition at 1 µM (ABL1): 41% | inhibition at 1 µM (ALK): 11% | inhibition at 1 µM (BTK): 7% | inhibition at 1 µM (CHK1): -8% | inhibition at 1 µM (CaMKI): -1% | inhibition at 1 µM (DMPK): -18% | inhibition at 1 µM (EGFR (T790M)): 1% | inhibition at 1 µM (EPHA1): 9% | inhibition at 1 µM (FYN): 44% | inhibition at 1 µM (GSK3β): 4% | inhibition at 1 µM (LCK): 33% | inhibition at 1 µM (MEK1): 12% | inhibition at 1 µM (MLK1): -1% | inhibition at 1 µM (P70S6K): 7% | inhibition at 1 µM (PDK1): -1% | inhibition at 1 µM (PIM1): 10% | inhibition at 1 µM (PLK1): 4% | inhibition at 1 µM (ROCK1): 3% | inhibition at 1 µM (ROS/ROS1): 19% | inhibition at 1 µM (RSK1): 8% | inhibition at 1 µM (SAPK2a): 25% | inhibition at 1 µM (SYK): 6% | inhibition at 1 µM (TEC (activated)): 14% | inhibition at 1 µM (c-MET): -16% | pIC50 [1, 14]: 7.40 | TGI [1, 15]: 100 nM | pIC50 [2, 14]: 6.00 | TGI [2, 15]: 97200 nM | pIC50 ([3]; Homo sapiens, IGROV-1, concentration producing 50% inhibition, mean of duplicate experiments): 7.22 | TGI [3, 15]: 56900 nM | pIC50 [4, 14]: 7.40 | TGI [4, 15]: 54000 nM | pIC50 [5, 14]: 6.80 | TGI [5, 15]: 3420 nM | pIC50 [6, 14]: 7.52 | TGI [6, 15]: 100 nM | pIC50 [7, 14]: 7.40 | TGI [7, 15]: 26400 nM | pIC50 [8, 14]: 7.70 | TGI [8, 15]: 50 nM | pIC50 [9, 14]: 6.62 | TGI [9, 15]: 50000 nM | pIC50 [10, 14]: 6.70 | TGI [10, 15]: >100000 nM | pIC50 [11, 14]: 7.22 | TGI [11, 15]: >100000 nM | pIC50 ([12]; concentration producing 50% inhibition, mean of duplicate experiments): 7.22 | TGI [12, 15]: >100000 nM | pIC50 ([13]; Homo sapiens, T47D, concentration producing 50% inhibition, mean of duplicate experiments): 7.10 | TGI [13, 15]: 7460 nM
